Assay results: patent publication US9828344B2, “Inhibitors of the notch signaling pathway and secretion for use in medicine” (Leibniz-Institut für Altersforschung Fritz-Lipmann-Institut …, priority 2012, dated 2017)
Peptide text beside a SMILES is read from it. * marks the point of attachment. Cbz = O=C(OCc1ccccc1)*; OtBu = CC(C)(C)O*

How the values were obtained:
NotchΔE-EGFP [1] = assay: Fluorescence microscopy of reporter localization in HeLa NotchΔE-EGFP cells; format: cell-based; conditions: for localization of NotchΔE-EGFP/NICD-EGFP: 10 μM compound, 24 h; for toxicity in cells: inferred from reversibility after wash-out
Protocol: FIG. 10: Phenotypes of Notch inhibitors are fully reversible. HeLa NotchΔE-EGFP cells plated in LabTek coverglass were incubated for 18 h with 10 iM of indicated compounds, washed and incubated for indicated times in cell culture medium. Cells were imaged by live-microscopy. […] Scalebar, 10 im.
For a detailed analysis of subcelluar distribution of NotchΔE/NICD the resolution of the HCS images was not sufficient. Therefore, the reporter cell line was plated on coverslips and incubated with 10 μM of individual compounds from the final hit list. After 24 h the localization of NotchΔE-EGFP/NICD-EGFP was determined by fluorescence microscopy. […] (FIG. 8).
Immunofluorescence stainings were made using standard procedures^55. Imaging was performed on a Zeiss Axiovert200 or an Axio Imager, using 63× 1.4NA objectives and Zeiss Axiovision software. For live-imaging cells were plated on Lab-Tek chambered coverglass (Thermo-Fisher). Images were assembled and processed using Adobe Photoshop. For displaying weakly stained ER-tubules/sheets non-linear changes in gamma-settings were used.

NotchΔE-EGFP [2] = assay: Western blot of NotchΔE-EGFP processing in HeLa NotchΔE-EGFP lysates; format: cell-based; conditions: 10 μM, 18 h
Protocol: FIG. 2: Selected compounds from final hit list show distinct phenotypes. Hela NotchΔE-EGFP cells were incubated with compounds (10 μM) for 18 h, fixed and analyzed by fluorescence microscopy (a) or lysed, separated by SDS-PAGE, blotted and probed with antibodies against GFP and NICD (b). Tubulin served as loading control. c) Quantitation of NotchΔE-EGFP accumulation and NICD production from 3-4 experiments as shown in (b). […] Arrows, plasma membrane; scalebar, 10 μm.
Next, lysates of HeLa NotchΔE-EGFP cells treated with compounds were analyzed for processing of NotchΔE-EGFP by Western blot using antibodies specific for EGFP and NICD (FIG. 2b, c). The GFP antibody detected both the uncleaved reporter NotchΔE-EGFP and the γ-secretase product NICD-EGFP, whereas the NICD-specific antibody specifically detected cleaved NICD-EGFP. […] The observed effects were not cell type specific, as they were also apparent in U2OS cells stably expressing NotchΔE-EGFP (FIG. 9).

NotchΔE-EGFP [3] = assay: Reporter localization in U2OS cells stably expressing NotchΔE-EGFP; format: cell-based; conditions: 10 iM, 18 h
Protocol: FIG. 9: Compound effects are not cell-type specific. U2OS cells stably expressing NotchΔE-EGFP were incubated for 18 h with 10 iM compounds as indicated, fixed and imaged by fluorescence microscopy. […] Arrows, plasma membrane; arrowheads, ER. Asterisks indicate cells where the ER collapsed to large aggregates. Scalebar, 10 im.

[4] = test system: endogenous Notch signaling; assay: Luciferase Notch reporter assay in C2C12 cells transfected with Delta; format: cell-based; conditions: 16 h
Protocol: (§1) Cells were incubated with DAPT or 10 μM of the indicated compounds (50 μM in case of FLI-15 and -20) and after 16 h a luciferase assay was performed. […] Changes in relative gene expression levels (fold change) relative to the expression levels in DMSO controls are represented as the mean+/−SD, asterisks indicate p<0.01. Each measurement was taken from two independent samples. Each reaction was measured in triplicate. Changes in the relative expression of ngn1 were standardized to the expression of the housekeeping gene ef1a at 20 hpf. c) ISH with riboprobes specific for ngn1 was performed on dechorionated stage 4 hpf zebrafish embryos. Anterior is to the left, dorsal to the top. Magnifications of the somite region (small box) are shown. Arrows indicate larger ngn1 clusters or stronger ngn1 staining. s, sensory neurons; i, intermediate neurons; m, motor neurons.
(§2) We wanted to test whether the results obtained with the NotchΔE-EGFP construct are relevant for endogenous Notch signaling. Therefore we made use of C2C12 cells, a well established model for muscle development that expresses endogenous Notch^21,22. After stimulating endogenous Notch signaling by transfecting the Notch ligand Delta, Notch activity was measured by a luciferase assay using a Notch reporter^15 in the presence or absence of compounds (FIG. 4a). […] Next, we tested whether selected compounds would affect Notch signaling in vivo. […] Compounds were added to dechorionated stage 4 hpf zebrafish embryos and the effects were analyzed after 24 h by morphological inspection of somite formation. Phenotypes were ranked to four categories, normal somites, mild somite defects, strong somite defects and developmental delay. […] As an additional parameter we decided to analyze Notch-dependent genes involved in neurogenesis. Primary neurogenesis in zebrafish involves the selection of neuroblasts (repressed by Notch) from proneural clusters (Notch expressing cells), a process regulated in a negative manner by Notch-dependent lateral inhibition^25. Accordingly, neuroblast cells that express the neuronal specification factor neurogenin (ngn1^26) became more abundant when Notch signaling was impaired, for instance upon DAPT treatment^23,27. qPCR analyses on mRNA extracted from equivalent sets of embryos was performed for ngn1 expression (FIG. 4b). […] To confirm the data obtained by qPCR, whole-mount in-situ hybridizations (ISH) using an ngn1 specific riboprobe were performed (FIG. 4c, FIG. 11c). […] Taken together, FLI-06, -14, -15, -19 and -20 inhibited endogenous Notch signaling in vitro and in vivo, corroborating the NotchΔE-EGFP reporter data.
Endogenous Notch signaling in C2C12 was determined by a luciferase assay using a 12xCSL-luciferase reporter and transfected Delta as described before^15.

zebrafish embryos = assay: Zebrafish embryo Notch phenotype (somites, ngn1 qPCR and ISH); format: in vivo, zebrafish Danio rerio; conditions: 50 μM; for ngn1 positive cell clusters in the developing brain (ISH): compared to DMSO controls; for ngn1 positive cell clusters along the spinal cord (ISH): compared to DMSO-treated control embryos; for ngn1 mRNA levels (qPCR): relative to DMSO controls
Protocol: as §1
FIG. 11: Selected compounds affect somite formation and neurogenesis in vivo in zebrafish embryos. a) Lateral view of typical representative phenotypes induced by DAPT treatment, which were used as a reference to score the effect of compounds. […] Images were taken at 24 hpf. b) Pie chart showing the cumulative relative frequency of the phenotypes in a) at 24 hpf in embryos treated with 20, 50 and 100 iM of the indicated compounds. c) ISH with riboprobes specific for ngn1 was performed on dechorionated stage 4 hpf zebrafish embryos. Anterior is to the left, dorsal to the top. Magnifications of the developing head (box) are shown. Arrows indicate larger ngn1 clusters or stronger ngn1 staining. t, telencephalon; p, protectum; h, hindbrain; d, diencephalon; tg, tegmentum; vrc, ventral rostral cluster.
as §2
Embryos were obtained from natural spawning of wild-type TüAB strain adults, raised and staged according to supp. Ref 14. DAPT and compounds were applied at 50 iM in E3 embryo medium to zebrafish embryos with chorions torn but not completely removed from sphere stage until the stage of analysis, according to ref 23. Control embryos were mock treated with the same concentration of DMSO dissolved in E3 embryo medium. […]

Row | Compound | localization of NotchΔE-EGFP/NICD-EGFP (NotchΔE-EGFP [1]) | toxicity in cells (NotchΔE-EGFP [1]) | NICD-EGFP production (NotchΔE-EGFP [2]) | NotchΔE-EGFP level (GFP antibody) (NotchΔE-EGFP [2]) | localization of NotchΔE-EGFP in U2OS cells (NotchΔE-EGFP [3]) | inhibition of endogenous Notch signaling ([4]; 10 μM) | ngn1 positive cell clusters in the developing brain (ISH) (zebrafish embryos) | ngn1 positive cell clusters along the spinal cord (ISH) (zebrafish embryos) | ngn1 mRNA levels (qPCR) (zebrafish embryos) | inhibition of endogenous Notch signaling ([4]; 50 μM)
1 | CC1=C(C(=O)OC2CCCCC2)C(c2ccc([N+](=O)[O-])cc2)C2=C(CC(C)(C)CC2=O)N1 (stereo not drawn) [FLI-06, Cyclohexyl 4-(4′-nitrophenyl)-2,7,7-trimethyl-5-oxo-1,4,5,6,7,8-hexahydroquinoline-3-carboxylate] | reduced nuclear fluorescence and localization in intracellular membranes | not acutely toxic in cells | decreased NICD-EGFP production | accumulation of NotchΔE-EGFP | ER accumulation of the reporter and in some cells aggregation | strongly | differentially expanded | expanded and denser clusters of ngn1 positive cells | significantly increased | 
2 | Cn1c2ccccc2c2c(C(=O)N3CCN(Cc4ccc5c(c4)OCO5)CC3)cn(C3CCCC3)c(=O)c21 [FLI-14] | accumulation of the reporter at the PM and in perinuclear Golgi-like structures | not acutely toxic in cells | decreased NICD-EGFP production | accumulation of NotchΔE-EGFP | PM accumulation similar to DAPT | strongly | differentially expanded | expanded and denser clusters of ngn1 positive cells | significantly increased | 
3 | Cc1ccc(NC(=O)C(NS(=O)(=O)c2cccc3nsnc23)C(C)C)nc1 (stereo not drawn) [FLI-15] | accumulation of the reporter at the PM and in perinuclear Golgi-like structures | not acutely toxic in cells | decreased NICD-EGFP production | accumulation of NotchΔE-EGFP | PM accumulation similar to DAPT | hardly affected Notch signaling | differentially expanded | expanded and denser clusters of ngn1 positive cells | significantly increased | remarkably
4 | CC(C)CC(NC(=O)C(Cc1ccccc1)NC(=O)C1CCCN1C(=O)OCc1ccccc1)C(=O)OC(C)(C)C (stereo not drawn) [FLI-19] (Cbz-Pro-Phe-Leu-OtBu; configuration not given here) | accumulation of the reporter at the PM and in perinuclear Golgi-like structures | not acutely toxic in cells |  | accumulation of NotchΔE-EGFP | PM accumulation similar to DAPT | considerably |  | increased | did not induce significant changes | 
5 | CC(=O)Nc1ccc2nc(NC(=O)CC34CC5CC(CC(C5)C3)C4)sc2c1 [FLI-20] | accumulation of the reporter at the PM and in perinuclear Golgi-like structures | not acutely toxic in cells | decreased NICD-EGFP production | accumulation of NotchΔE-EGFP | PM accumulation similar to DAPT | hardly affected Notch signaling | differentially expanded | expanded and denser clusters of ngn1 positive cells | significantly increased | remarkably
